# Measured values from paper PMC7656562 (Journal of medicinal chemistry, 2019).
# Like-named read-outs stand apart in the source and are kept apart here.
# Columns and labels:
# hCB1 [1] = target: T1, hCB1 (Homo sapiens, UniProt P21554); experiment: cell-based
# [2] = mouse, 0.3 mg/kg PO
# [3] = rat, 1 mg/kg PO
# hCB1 [4] = target: T1, hCB1; conditions: calcium assay, basal signaling
# [5] = test system: alcohol-induced liver steatosis; experiment: Alcohol induced hepatic steatosis study; format: in vivo, mouse; conditions: female C57BL6 mice on ethanol diet; 0.03, 0.1, 0.3 mg/kg once daily oral gavage, last 2 weeks; effect at the two higher doses; p < 0.05 versus ethanol + vehicle
# [6] = test system: SafetyScreen44 Panel targets
# hCB1 [7] = target: T1, hCB1; conditions: ratio Ki hCB2/Ki hCB1
# T1 sequence (P21554 whole entry): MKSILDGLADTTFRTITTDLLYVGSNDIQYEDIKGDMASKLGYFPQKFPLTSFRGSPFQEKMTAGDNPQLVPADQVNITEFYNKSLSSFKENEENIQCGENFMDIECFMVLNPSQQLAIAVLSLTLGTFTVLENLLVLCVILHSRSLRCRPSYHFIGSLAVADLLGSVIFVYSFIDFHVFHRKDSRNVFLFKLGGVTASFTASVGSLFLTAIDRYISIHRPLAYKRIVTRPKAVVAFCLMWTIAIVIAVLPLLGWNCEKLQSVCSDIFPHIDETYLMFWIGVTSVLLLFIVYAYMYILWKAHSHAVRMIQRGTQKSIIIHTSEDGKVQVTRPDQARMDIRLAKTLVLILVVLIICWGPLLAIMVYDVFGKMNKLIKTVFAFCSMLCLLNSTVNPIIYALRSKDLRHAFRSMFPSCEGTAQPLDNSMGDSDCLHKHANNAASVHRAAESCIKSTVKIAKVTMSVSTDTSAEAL
Structure (SMILES),Kb (hCB1 [1]),further results
"CCCN(CC(F)(F)F)C(=O)NC1CCN(c2ncnc3c2nc(-c2ccccc2Cl)n3-c2ccc(Cl)cc2)CC1 [Compound 12, 1-{1-[8-(2-Chlorophenyl)-9-(4-chlorophenyl)-9H-purin-6-yl]-piperidin-4-yl}-3-propyl-3-(2,2,2-trifluoroethyl)urea]",1.2 ± 0.6 nM,–
"CC(C)(C)CNC(=O)NC1CCN(c2ncnc3c2nc(-c2ccccc2Cl)n3-c2ccc(Cl)cc2)CC1 [Compound 14, 1-{1-[8-(2-Chlorophenyl)-9-(4-chlorophenyl)-9H-purin-6-yl]-piperidin-4-yl}-3-(2,2-dimethylpropyl)urea]",270 ± 130 nM,–
"O=C(NC1CCN(c2ncnc3c2nc(-c2ccccc2Cl)n3-c2ccc(Cl)cc2)CC1)N1CCCC1 [Compound 16, N-{1-[8-(2-Chlorophenyl)-9-(4-chlorophenyl)-9H-purin-6-yl]-piperidin-4-yl}pyrrolidine-1-carboxamide]",190 ± 110 nM,–
"O=C(NC1CCN(c2ncnc3c2nc(-c2ccccc2Cl)n3-c2ccc(Cl)cc2)CC1)N1CCCCC1 [Compound 17, N-{1-[8-(2-Chlorophenyl)-9-(4-chlorophenyl)-9H-purin-6-yl]-piperidin-4-yl}piperidine-1-carboxamide]",7 ± 4 nM,–
"O=C(NC1CCN(c2ncnc3c2nc(-c2ccccc2Cl)n3-c2ccc(Cl)cc2)CC1)N1CCOCC1 [Compound 18, N-{1-[8-(2-Chlorophenyl)-9-(4-chlorophenyl)-9H-purin-6-yl]-piperidin-4-yl}morpholine-4-carboxamide]",340 ± 60 nM,–
"O=C(NC1CCN(c2ncnc3c2nc(-c2ccccc2Cl)n3-c2ccc(Cl)cc2)CC1)NC1(C(F)(F)F)CCCC1 [Compound 20, 1-{1-[8-(2-Chlorophenyl)-9-(4-chlorophenyl)-9H-purin-6-yl]-piperidin-4-yl}-3-[1-(trifluoromethyl)cyclopentyl]urea]",12 ± 8 nM,–
"O=C(NC1CCCCC1)NC1CCN(c2ncnc3c2nc(-c2ccccc2Cl)n3-c2ccc(Cl)cc2)CC1 [Compound 21, 3-{1-[8-(2-Chlorophenyl)-9-(4-chlorophenyl)-9H-purin-6-yl]-piperidin-4-yl}-1-cyclohexylurea]",35 ± 10 nM,–
"CC1(NC(=O)NC2CCN(c3ncnc4c3nc(-c3ccccc3Cl)n4-c3ccc(Cl)cc3)CC2)CCC(F)(F)CC1 [Compound 23, 3-{1-[8-(2-Chlorophenyl)-9-(4-chlorophenyl)-9H-purin-6-yl]-piperidin-4-yl}-1-(4,4-difluoro-1-methylcyclohexyl)urea]",0.4 ± 0.3 nM,–
"O=C(NCC1CCCCC1)NC1CCN(c2ncnc3c2nc(-c2ccccc2Cl)n3-c2ccc(Cl)cc2)CC1 [Compound 25, 3-{1-[8-(2-Chlorophenyl)-9-(4-chlorophenyl)-9H-purin-6-yl]-piperidin-4-yl}-1-(cyclohexylmethyl)urea]",5 ± 3 nM,–
"O=C(NCC1CCC(F)(F)CC1)NC1CCN(c2ncnc3c2nc(-c2ccccc2Cl)n3-c2ccc(Cl)cc2)CC1 [Compound 26, 3-{1-[8-(2-Chlorophenyl)-9-(4-chlorophenyl)-9H-purin-6-yl]-piperidin-4-yl}-1-[(4,4-difluorocyclohexyl)methyl]urea]",28 ± 15 nM,–
"CN1CCC(CNC(=O)NC2CCN(c3ncnc4c3nc(-c3ccccc3Cl)n4-c3ccc(Cl)cc3)CC2)CC1 [Compound 27, 3-{1-[8-(2-Chlorophenyl)-9-(4-chlorophenyl)-9H-purin-6-yl]-piperidin-4-yl}-1-[(1-methylpiperidin-4-yl)methyl]urea]",25000 ± 12000 nM,–
"O=C(Nc1ccccn1)NC1CCN(c2ncnc3c2nc(-c2ccccc2Cl)n3-c2ccc(Cl)cc2)CC1 [Compound 31, 3-{1-[8-(2-Chlorophenyl)-9-(4-chlorophenyl)-9H-purin-6-yl]-piperidin-4-yl}-1-(pyridin-2-yl)urea]",150 ± 50 nM,–
"O=C(Nc1ccc(F)cc1F)NC1CCN(c2ncnc3c2nc(-c2ccccc2Cl)n3-c2ccc(Cl)cc2)CC1 [Compound 33, 3-{1-[8-(2-Chlorophenyl)-9-(4-chlorophenyl)-9H-purin-6-yl]-piperidin-4-yl}-1-(2,4-difluorophenyl)urea]",–,plasma HL [2]: 12 h; time of plasma max. conc. [2]: 1 h; plasma HL [3]: 12 h; neutral antagonist or inverse agonist of hCB1 (hCB1 [4]): inverse agonists
"O=C(Nc1ccc(F)c(F)c1)NC1CCN(c2ncnc3c2nc(-c2ccccc2Cl)n3-c2ccc(Cl)cc2)CC1 [Compound 34, 3-{1-[8-(2-Chlorophenyl)-9-(4-chlorophenyl)-9H-purin-6-yl]-piperidin-4-yl}-1-(3,4-difluorophenyl)urea]",290 ± 80 nM,–
"O=C(Nc1cccnc1C(F)(F)F)NC1CCN(c2ncnc3c2nc(-c2ccccc2Cl)n3-c2ccc(Cl)cc2)CC1 [Compound 36, 3-{1-[8-(2-Chlorophenyl)-9-(4-chlorophenyl)-9H-purin-6-yl]-piperidin-4-yl}-1-[2-(trifluoromethyl)pyridin-3-yl]urea]",160 ± 60 nM,–
"O=C(Nc1ccc(OC(F)F)nc1)NC1CCN(c2ncnc3c2nc(-c2ccccc2Cl)n3-c2ccc(Cl)cc2)CC1 [Compound 38, 3-{1-[8-(2-Chlorophenyl)-9-(4-chlorophenyl)-9H-purin-6-yl]-piperidin-4-yl}-1-[6-(difluoromethoxy)pyridin-3-yl]urea]",–,"hepatic lipid droplets (Oil Red O staining, ImageJ quantification) [5]: statistically significant reduction of liver steatosis; plasma HL [2]: 11 h; EC50 or IC50 on all targets tested [6]: > 10000 nM; neutral antagonist or inverse agonist of hCB1 (hCB1 [4]): inverse agonists"
"O=C(Nc1cc(C(F)(F)F)[nH]n1)NC1CCN(c2ncnc3c2nc(-c2ccccc2Cl)n3-c2ccc(Cl)cc2)CC1 [Compound 39, 1-{1-[8-(2-Chlorophenyl)-9-(4-chlorophenyl)-9H-purin-6-yl]-piperidin-4-yl}-3-[5-(trifluoromethyl)-1H-pyrazol-3-yl]urea]",270 ± 60 nM,–
"Cn1cc(NC(=O)NC2CCN(c3ncnc4c3nc(-c3ccccc3Cl)n4-c3ccc(Cl)cc3)CC2)cn1 [Compound 40, 1-{1-[8-(2-Chlorophenyl)-9-(4-chlorophenyl)-9H-purin-6-yl]-piperidin-4-yl}-3-(1-methyl-1H-pyrazol-4-yl)urea]",28000 ± 8000 nM,–
"O=C(NCC1CCCCC1)NC1CCN(c2ncnc3c2nc(-c2ccccc2Cl)n3-c2ccc(C(F)(F)F)nc2)CC1 [Compound 42, 3-{1-[8-(2-Chlorophenyl)-9-[6-(trifluoromethyl)pyridin-3-yl]-9H-purin-6-yl]piperidin-4-yl}-1-(cyclohexylmethyl)urea]",76 ± 34 nM,–
"O=C(Nc1ccccc1F)NC1CCN(c2ncnc3c2nc(-c2ccccc2Cl)n3-c2ccc(F)cc2)CC1 [Compound 44, 3-{1-[8-(2-Chlorophenyl)-9-(4-fluorophenyl)-9H-purin-6-yl]-piperidin-4-yl}-1-(2-fluorophenyl)urea]",3800 ± 1500 nM,–
"CC1(NC(=O)NC2CCCCC2)CCN(c2ncnc3c2nc(-c2ccccc2Cl)n3-c2ccc(Cl)cc2)CC1 [Compound 47, 3-{1-[8-(2-Chlorophenyl)-9-(4-chlorophenyl)-9H-purin-6-yl]-4-methylpiperidin-4-yl}-1-cyclohexylurea]",7 ± 5 nM,Selectivity Ki CB2/CB1 (hCB1 [7]): >769
"CC1(NC(=O)NC2CCC(F)(F)CC2)CCN(c2ncnc3c2nc(-c2ccccc2Cl)n3-c2ccc(Cl)cc2)CC1 [Compound 48, 3-{1-[8-(2-Chlorophenyl)-9-(4-chlorophenyl)-9H-purin-6-yl]-4-methylpiperidin-4-yl}-1-(4,4-difluorocyclohexyl)urea]",2 ± 1 nM,–
"CC1(NC(=O)NCc2ccccc2F)CCN(c2ncnc3c2nc(-c2ccccc2Cl)n3-c2ccc(Cl)cc2)CC1 [Compound 49, 3-{1-[8-(2-Chlorophenyl)-9-(4-chlorophenyl)-9H-purin-6-yl]-4-methylpiperidin-4-yl}-1-[(2-fluorophenyl)methyl]urea]",14 ± 7 nM,–
"CC1(NC(=O)Nc2ccccc2F)CCN(c2ncnc3c2nc(-c2ccccc2Cl)n3-c2ccc(Cl)cc2)CC1 [Compound 50, 3-{1-[8-(2-Chlorophenyl)-9-(4-chlorophenyl)-9H-purin-6-yl]-4-methylpiperidin-4-yl}-1-(2-fluorophenyl)urea]",1.6 ± 1.1 nM,–
"CC1(NC(=O)Nc2ccc(F)cc2F)CCN(c2ncnc3c2nc(-c2ccccc2Cl)n3-c2ccc(Cl)cc2)CC1 [Compound 51, 3-{1-[8-(2-Chlorophenyl)-9-(4-chlorophenyl)-9H-purin-6-yl]-4-methylpiperidin-4-yl}-1-(2,4-difluorophenyl)urea]",9 ± 4 nM,–
"CC1(NC(=O)Nc2ccc(OC(F)F)nc2)CCN(c2ncnc3c2nc(-c2ccccc2Cl)n3-c2ccc(Cl)cc2)CC1 [Compound 52, 3-{1-[8-(2-Chlorophenyl)-9-(4-chlorophenyl)-9H-purin-6-yl]-4-methylpiperidin-4-yl}-1-[6-(difluoromethoxy)pyridin-3-yl]urea]",46 ± 23 nM,–
"CC1(NS(=O)(=O)NC2CCCCC2)CCN(c2ncnc3c2nc(-c2ccccc2Cl)n3-c2ccc(Cl)cc2)CC1 [Compound 54, N-Cyclohexyl({1-[8-(2-chlorophenyl)-9-(4-chlorophenyl)-9H-purin-6-yl]-4-methylpiperidin-4-yl}amino)sulfonamide]",17 ± 3 nM,–
